In PubChem BioAssay (NCI):
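Abbreviation: GI50, concentration required for 50% inhibition of growth. Definition used: TGI = concentration required for complete inhibition of growth.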

Columns and labels:
Assay in all cases: NCI-60 cell line screen, 384-well format
CCRF-CEM leukemia = system: CCRF-CEM leukemia
UO-31 renal = system: UO-31 renal
U251 glioblastoma = system: U251 glioblastoma
MCF7 breast = system: MCF7 breast
BT-549 breast = system: BT-549 breast
T-47D breast = system: T-47D breast
HOP-62 NSCLC = system: HOP-62 NSCLC
UACC-62 melanoma = system: UACC-62 melanoma
COLO 205 colon = system: COLO 205 colon
OVCAR-8 ovarian = system: OVCAR-8 ovarian
RPMI-8226 leukemia = system: RPMI-8226 leukemia
786-0 renal = system: 786-0 renal
NCI-H522 lung = system: NCI-H522 lung
A549 NSCLC = system: A549 NSCLC
SF-539 CNS = system: SF-539 CNS
HL-60(TB) leukemia = system: HL-60(TB) leukemia
HCC-2998 colon = system: HCC-2998 colon
TK-10 renal = system: TK-10 renal
DU-145 prostate = system: DU-145 prostate
HS 578T breast = system: HS 578T breast
M14 melanoma = system: M14 melanoma
NCI-H226 lung = system: NCI-H226 lung
MDA-MB-231 breast = system: MDA-MB-231 breast
MDA-MB-435 melanoma = system: MDA-MB-435 melanoma
SF-268 CNS = system: SF-268 CNS
HCT-15 colon = system: HCT-15 colon
RXF 393 renal = system: RXF 393 renal
MALME-3M melanoma = system: MALME-3M melanoma
NCI-H460 NSCLC = system: NCI-H460 NSCLC
IGROV1 ovarian = system: IGROV1 ovarian
K-562 leukemia = system: K-562 leukemia
NCI-H322M lung = system: NCI-H322M lung
LOX IMVI melanoma = system: LOX IMVI melanoma
SW-620 colon = system: SW-620 colon
OVCAR-3 ovarian = system: OVCAR-3 ovarian
OVCAR-4 ovarian = system: OVCAR-4 ovarian
KM12 colon = system: KM12 colon
A498 renal = system: A498 renal
NCI-H23 lung = system: NCI-H23 lung
HCT-116 colon = system: HCT-116 colon
SF-295 CNS = system: SF-295 CNS
HOP-92 NSCLC = system: HOP-92 NSCLC
EKVX NSCLC = system: EKVX NSCLC
UACC-257 melanoma = system: UACC-257 melanoma
HT29 colon = system: HT29 colon
NCI/ADR-RES ovarian = system: NCI/ADR-RES ovarian
CAKI-1 renal = system: CAKI-1 renal
SK-MEL-5 melanoma = system: SK-MEL-5 melanoma
SK-MEL-28 melanoma = system: SK-MEL-28 melanoma
ACHN renal = system: ACHN renal
PC-3 prostate = system: PC-3 prostate
SK-OV-3 ovarian = system: SK-OV-3 ovarian
SNB-75 CNS = system: SNB-75 CNS
SR leukemia = system: SR leukemia

CCCCCCCCCCCCCCCC(=O)Nc1ccn([C@@H]2O[C@H](CO)[C@@H](O)[C@@H]2C#N)c(=O)n1
TGI (CCRF-CEM leukemia): 0.12 µM
GI50 (UO-31 renal): 11.7 µM
TGI (UO-31 renal): 45.7 µM
GI50 (U251 glioblastoma): 0.314 µM
TGI (U251 glioblastoma): 23.5 µM
GI50 (MCF7 breast): 1.33 µM
TGI (MCF7 breast): 24.3 µM
GI50 (BT-549 breast): 5.56 µM
TGI (BT-549 breast): 24.2 µM
GI50 (T-47D breast): 35.1 µM
TGI (T-47D breast): > 100 µM
GI50 (HOP-62 NSCLC): 0.0542 µM
TGI (HOP-62 NSCLC): 18.5 µM
GI50 (UACC-62 melanoma): 0.655 µM
TGI (UACC-62 melanoma): 23.5 µM
GI50 (COLO 205 colon): 0.325 µM
TGI (COLO 205 colon): > 100 µM
GI50 (OVCAR-8 ovarian): 0.292 µM
TGI (OVCAR-8 ovarian): 18.4 µM
GI50 (RPMI-8226 leukemia): 4.4 µM
TGI (RPMI-8226 leukemia): 20.6 µM
GI50 ([…]-0 renal): 0.0598 µM
TGI (786-0 renal): 29.8 µM
GI50 (NCI-H522 lung): 6.11 µM
TGI (NCI-H522 lung): 23.4 µM
GI50 (A549 NSCLC): 1.32 µM
TGI (A549 NSCLC): 20 µM
GI50 (SF-539 CNS): 4.82 µM
TGI (SF-539 CNS): 38.3 µM
GI50 (HL-60(TB) leukemia): 0.368 µM
TGI (HL-60(TB) leukemia): 1.4 µM
GI50 (HCC-2998 colon): 0.464 µM
TGI (HCC-2998 colon): 10.6 µM
GI50 (TK-10 renal): 34.8 µM
TGI (TK-10 renal): > 100 µM
GI50 (DU-145 prostate): 0.751 µM
TGI (DU-145 prostate): 21.7 µM
GI50 (HS 578T breast): 1.58 µM
TGI (HS 578T breast): 20.4 µM
GI50 (M14 melanoma): 3 µM
TGI (M14 melanoma): 22.4 µM
GI50 (NCI-H226 lung): 13.3 µM
TGI (NCI-H226 lung): 54.9 µM
GI50 (MDA-MB-231 breast): 11.1 µM
TGI (MDA-MB-231 breast): > 100 µM
GI50 (MDA-MB-435 melanoma): 28.1 µM
TGI (MDA-MB-435 melanoma): > 100 µM
GI50 (SF-268 CNS): 0.43 µM
TGI (SF-268 CNS): 19.9 µM
GI50 (HCT-15 colon): 0.946 µM
TGI (HCT-15 colon): 66.9 µM
GI50 (RXF 393 renal): 16.6 µM
TGI (RXF 393 renal): > 100 µM
GI50 (MALME-3M melanoma): 10.5 µM
TGI (MALME-3M melanoma): 28 µM
GI50 (NCI-H460 NSCLC): 0.143 µM
TGI (NCI-H460 NSCLC): 10.1 µM
GI50 (IGROV1 ovarian): 12.7 µM
TGI (IGROV1 ovarian): 86 µM
GI50 (K-562 leukemia): 2.52 µM
TGI (K-562 leukemia): 17.7 µM
GI50 (NCI-H322M lung): 14.6 µM
TGI (NCI-H322M lung): 31 µM
GI50 (LOX IMVI melanoma): 3.42 µM
TGI (LOX IMVI melanoma): 17.7 µM
GI50 (SW-620 colon): 4.81 µM
TGI (SW-620 colon): > 100 µM
GI50 (OVCAR-3 ovarian): 10.3 µM
TGI (OVCAR-3 ovarian): 37.9 µM
GI50 (OVCAR-4 ovarian): 28.1 µM
TGI (OVCAR-4 ovarian): > 100 µM
GI50 (KM12 colon): 6.5 µM
TGI (KM12 colon): 35.2 µM
GI50 (A498 renal): 0.74 µM
TGI (A498 renal): 15.8 µM
GI50 (NCI-H23 lung): 0.244 µM
TGI (NCI-H23 lung): 15.5 µM
GI50 (HCT-116 colon): 0.454 µM
TGI (HCT-116 colon): 18.8 µM
GI50 (SF-295 CNS): 0.716 µM
TGI (SF-295 CNS): > 100 µM
GI50 (HOP-92 NSCLC): 4.71 µM
TGI (HOP-92 NSCLC): 35.3 µM
GI50 (EKVX NSCLC): 28.4 µM
TGI (EKVX NSCLC): > 100 µM
GI50 (UACC-257 melanoma): 20.1 µM
TGI (UACC-257 melanoma): 74.6 µM
GI50 (HT29 colon): 12.5 µM
TGI (HT29 colon): > 100 µM
GI50 (NCI/ADR-RES ovarian): 11.1 µM
TGI (NCI/ADR-RES ovarian): > 100 µM
GI50 (CAKI-1 renal): 2.44 µM
TGI (CAKI-1 renal): 43.6 µM
GI50 (SK-MEL-5 melanoma): 7.71 µM
TGI (SK-MEL-5 melanoma): 21 µM
GI50 (SK-MEL-28 melanoma): 6.96 µM
TGI (SK-MEL-28 melanoma): 30.1 µM
GI50 (ACHN renal): 0.988 µM
TGI (ACHN renal): 39.1 µM
GI50 (PC-3 prostate): 13.3 µM
TGI (PC-3 prostate): 92.5 µM
GI50 (SK-OV-3 ovarian): 1.15 µM
TGI (SK-OV-3 ovarian): 39.1 µM
GI50 (SNB-75 CNS): 4.66 µM
TGI (SNB-75 CNS): 52.5 µM
GI50 (SR leukemia): 0.139 µM
TGI (SR leukemia): 0.339 µM
